From BindingDB's records for doi:10.7270/Q2TX3CTT (Broad Institute, 2010)

Target: Glycogen synthase kinase-3 beta (Homo sapiens, UniProt P49841)
Assay: GSK3beta kinase inhibitor potency, dose response, biochemical, luminescence, cell-free homogeneous, retest (AID 434954)

Glycogen synthase kinase-3 beta, sequence (P49841 whole entry): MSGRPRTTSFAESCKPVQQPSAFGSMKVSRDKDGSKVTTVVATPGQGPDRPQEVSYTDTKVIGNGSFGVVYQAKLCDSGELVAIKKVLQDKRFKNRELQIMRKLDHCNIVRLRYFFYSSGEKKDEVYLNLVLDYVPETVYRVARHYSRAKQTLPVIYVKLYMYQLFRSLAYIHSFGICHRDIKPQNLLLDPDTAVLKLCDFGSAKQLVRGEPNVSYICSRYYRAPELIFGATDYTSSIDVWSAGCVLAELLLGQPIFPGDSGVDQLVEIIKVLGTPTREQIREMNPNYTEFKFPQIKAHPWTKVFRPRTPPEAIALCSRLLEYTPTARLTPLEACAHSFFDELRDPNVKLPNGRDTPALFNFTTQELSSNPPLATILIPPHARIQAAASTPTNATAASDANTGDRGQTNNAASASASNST

Question: For CCOC(=O)N1CCN(S(=O)(=O)c2cc(Br)cc3c2N(C(=O)C2CC2)CC3)CC1 [ethyl 4-[(5-bromanyl-1-cyclopropylcarbonyl-2,3-dihydroindol-7-yl)sulfonyl]piperazine-1-carboxylate], which EC50 is on record?
Answer: > 300 µM

Question: With CCOC(=O)c1c(C)[nH]c(C)c1S(=O)(=O)N(C)CC(=O)Nc1cccc(F)c1 [ethyl 4-[[2-(3-fluoroanilino)-2-oxoethyl]-methylsulfamoyl]-2,5-dimethyl-1H-pyrrole-3-carboxylate] as the compound, how does the EC50 read?
Answer: > 300 µM

Question: Which EC50 does the source give for CCOC(=O)CC(=O)CSc1ccc2nnc(-c3cccc(F)c3)n2n1 [ethyl 4-[[3-(3-fluorophenyl)-[1,2,4]triazolo[4,3-b]pyridazin-6-yl]sulfanyl]-3-oxobutanoate] here?
Answer: > 300 µM

Question: Which EC50 does the source give for CCOC(=O)CC(=O)CSc1ccc2nnc(-c3ccc(F)cc3)n2n1 [ethyl 4-{[3-(4-fluorophenyl)[1,2,4]triazolo[4,3-b]pyridazin-6-yl]thio}-3-oxobutanoate] here?
Answer: 83.8 µM

Question: CCOC(=O)c1c(C)oc2c(CC(=O)c3ccccc3)c(Cl)c(O)c(O)c12 [ethyl 6-chloro-4,5-dihydroxy-2-methyl-7-phenacyl-1-benzofuran-3-carboxylate] was tested. Which EC50 did it give?
Answer: > 300 µM

Question: For CCOC(=O)c1cnc2ccc(Cl)cc2c1Nc1ccc(S(=O)(=O)Nc2ncccn2)cc1 [ethyl 6-chloro-4-[4-(pyrimidin-2-ylsulfamoyl)anilino]quinoline-3-carboxylate], which EC50 is on record?
Answer: 108 µM

Question: How did the EC50 turn out when CCOC(=O)C1C(C)=Nc2ncnn2C1c1ccccc1F (centres undefined) [ethyl 7-(2-fluorophenyl)-5-methyl-4,7-dihydro[1,2,4]triazolo[1,5-a]pyrimidine-6-carboxylate] was run?
Answer: > 300 µM

Question: Which EC50 does the source give for CCOC(=O)C1C(C)=Nc2ncnn2C1c1cc(Br)ccc1F (centres undefined) [ethyl 7-(5-bromo-2-fluorophenyl)-5-methyl-1,7-dihydro-[1,2,4]triazolo[1,5-a]pyrimidine-6-carboxylate] here?
Answer: 24 µM

Question: For CCCC1=Nc2ncnn2C(c2ccco2)C1C(=O)OCC (centres undefined) [ethyl 7-(furan-2-yl)-5-propyl-1,7-dihydro-[1,2,4]triazolo[1,5-a]pyrimidine-6-carboxylate], which EC50 is on record?
Answer: 17.4 µM

Question: How did the EC50 turn out when CCOC(=O)C1C(C)=Nc2ncnn2C1c1ccc(N(C)C)cc1 (centres undefined) [ethyl 7-[4-(dimethylamino)phenyl]-5-methyl-1,7-dihydro-[1,2,4]triazolo[1,5-a]pyrimidine-6-carboxylate] was run?
Answer: > 300 µM

Question: For CCOC(=O)c1cnc2c(C)cccc2c1Nc1ccc(N2CCOCC2)cc1 [ethyl 8-methyl-4-[(4-morpholin-4-ylphenyl)amino]quinoline-3-carboxylate], which EC50 is on record?
Answer: > 300 µM

Question: For CCOC(=O)CSc1ccc2nnc(CCNS(=O)(=O)c3ccccc3)n2n1 [ethyl [(3-{2-[(phenylsulfonyl)amino]ethyl}[1,2,4]triazolo[4,3-b]pyridazin-6-yl)thio]acetate], which EC50 is on record?
Answer: > 300 µM

Question: With COC(=O)c1nnn(-c2nonc2N)c1CSc1nc2ccccc2s1 [methyl 1-(4-amino-1,2,5-oxadiazol-3-yl)-5-(1,3-benzothiazol-2-ylsulfanylmethyl)triazole-4-carboxylate] as the compound, how does the EC50 read?
Answer: > 300 µM

Question: With COC(=O)c1nnn(-c2nonc2N)c1CSc1nc2ccccc2o1 [methyl 1-(4-amino-1,2,5-oxadiazol-3-yl)-5-[(1,3-benzoxazol-2-ylthio)methyl]-1H-1,2,3-triazole-4-carboxylate] as the compound, how does the EC50 read?
Answer: 127 µM

Question: Which EC50 does the source give for COC(=O)c1nnn(-c2nonc2N)c1COc1ccc(C=O)cc1OC [methyl 1-(4-azanyl-1,2,5-oxadiazol-3-yl)-5-[(4-methanoyl-2-methoxy-phenoxy)methyl]-1,2,3-triazole-4-carboxylate] here?
Answer: 25.9 µM

Question: With CCOC(=O)c1ccc(/N=c2\sc(C(=O)OC)cc(=O)n2Cc2ccco2)cc1 [methyl 2-(4-ethoxycarbonylphenyl)imino-3-(furan-2-ylmethyl)-4-oxidanylidene-1,3-thiazine-6-carboxylate] as the compound, how does the EC50 read?
Answer: > 300 µM

Question: COC(=O)C(C)Oc1cc(OC(C)C(=O)OC)c2c(-c3ccccc3)cc(=O)oc2c1 (centres undefined) [methyl 2-[5-(1-methoxy-1-oxopropan-2-yl)oxy-2-oxo-4-phenylchromen-7-yl]oxypropanoate] was tested. Which EC50 did it give?
Answer: > 300 µM

Question: COC(=O)c1ccccc1Nc1ccnc(Cl)n1 [methyl 2-[(2-chloropyrimidin-4-yl)amino]benzoate] was tested. Which EC50 did it give?
Answer: > 300 µM

Question: How did the EC50 turn out when COC(=O)CSc1nnc(-c2ccncc2)o1 [methyl 2-[(5-pyridin-4-yl-1,3,4-oxadiazol-2-yl)sulfanyl]ethanoate] was run?
Answer: > 300 µM

Question: Which EC50 does the source give for COC(=O)CSc1ccc2nnc(-c3ccc(F)cc3)n2n1 [methyl 2-[[3-(4-fluorophenyl)-[1,2,4]triazolo[4,3-b]pyridazin-6-yl]sulfanyl]ethanoate] here?
Answer: 9.3 µM

Question: Which EC50 does the source give for COC(=O)c1c(N)c(C#N)c2n1CCCCC2 [methyl 2-amino-1-cyano-6,7,8,9-tetrahydro-5H-pyrrolo[1,2-a]azepine-3-carboxylate] here?
Answer: > 300 µM

Question: With COC(=O)c1c(C)oc2ccc(OC(=O)c3cccs3)cc12 [methyl 2-methyl-5-thiophen-2-ylcarbonyloxy-1-benzofuran-3-carboxylate] as the compound, how does the EC50 read?
Answer: > 300 µM

Question: COC(=O)c1sccc1NC(=O)c1cccc(OC)c1 [methyl 3-[(3-methoxyphenyl)carbonylamino]thiophene-2-carboxylate] was tested. Which EC50 did it give?
Answer: > 300 µM

Question: How did the EC50 turn out when COC(=O)c1sc(=S)n(Cc2ccccc2)c1C [methyl 3-benzyl-4-methyl-2-sulfanylidene-1,3-thiazole-5-carboxylate] was run?
Answer: > 300 µM

Question: How did the EC50 turn out when COC(=O)c1cc(C(=O)Nc2cc(C)ccn2)cc([N+](=O)[O-])c1 [methyl 3-{[(4-methyl-2-pyridinyl)amino]carbonyl}-5-nitrobenzoate] was run?
Answer: > 300 µM

Question: COC(=O)c1ccc(NC(C(=O)OC)C(C)C)c([N+](=O)[O-])c1 (centres undefined) [methyl 4-[(1-methoxy-3-methyl-1-oxidanylidene-butan-2-yl)amino]-3-nitro-benzoate] was tested. Which EC50 did it give?
Answer: > 300 µM

Question: Which EC50 does the source give for COC(=O)c1ccc(CSc2nnc(-c3ccncc3)o2)o1 [methyl 5-({[5-(4-pyridinyl)-1,3,4-oxadiazol-2-yl]thio}methyl)-2-furoate] here?
Answer: 12.5 µM

Question: COC(=O)[C@@H]1Cc2c([nH]c3ccccc23)C2CCC(=O)N21 (stereo partly drawn) [methyl (5S)-3-oxidanylidene-1,2,5,6,11,11b-hexahydroindolizino[8,7-b]indole-5-carboxylate] was tested. Which EC50 did it give?
Answer: > 300 µM

Question: COC(=O)C1=C(C)N(CCc2cc(OC)c(OC)c(OC)c2)C(=O)N[C@H]1c1ccccc1 [methyl (6S)-4-methyl-2-oxo-6-phenyl-3-[2-(3,4,5-trimethoxyphenyl)ethyl]-1,6-dihydropyrimidine-5-carboxylate] was tested. Which EC50 did it give?
Answer: > 300 µM

Question: With C=CCN=C(NC#N)SC [methyl N-cyano-N'-prop-2-enyl-carbamimidothioate] as the compound, how does the EC50 read?
Answer: > 300 µM

Question: For OC(c1ccccc1)c1ccncc1 (centres undefined) [phenyl(pyridin-4-yl)methanol], which EC50 is on record?
Answer: > 300 µM

Question: For CCN(CC)Cc1c(C(=O)OC(C)C)nnn1-c1nonc1N [propan-2-yl 1-(4-azanyl-1,2,5-oxadiazol-3-yl)-5-(diethylaminomethyl)-1,2,3-triazole-4-carboxylate], which EC50 is on record?
Answer: > 300 µM

Question: COc1ccc(Nc2nc(N)c(C(=O)c3ccc(F)cc3)s2)cc1 [{4-amino-2-[(4-methoxyphenyl)amino]-1,3-thiazol-5-yl}(4-fluorophenyl)methanone] was tested. Which EC50 did it give?
Answer: 0.662 µM

Question: How did the EC50 turn out when COc1ccc(Nc2nc(N)c(C(=O)c3ccc(OC)cc3)s2)cc1 [{4-amino-2-[(4-methoxyphenyl)amino]-1,3-thiazol-5-yl}(4-methoxyphenyl)methanone] was run?
Answer: 0.313 µM
